Test results as given in PubChem BioAssay AID248 (DTP/NCI, 2004).
Where “and” joins values, the source holds several entries; their conditions need not be identical. Identical values can stand only once. Inconclusive results and toxic doses are left out. Rule as the data show it: active = T/C of 150% or more; inactive = T/C below 125%.

System: L1210 leukemia ip in BDF1 mice, survival T/C
Assay: NCI In Vivo Anticancer Drug Screen. Data for tumor model L1210 Leukemia (intraperitoneal) in B6D2F1 (BDF1) mice
Conditions: endpoint: mean survival time, higher = longer survival
Method in brief: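 Read-out is survival time, reported as the treated-group measurement over the vehicle-control measurement.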

[1] = dose: 100.0 mg/kg/injection, schedule: Q01DX009 (ip), vehicle: Klucel (hydroxypropylcellulose) (HPC)
[2] = dose: 100.0 mg/kg/injection, schedule: Q04DX002 (ip), vehicle: Klucel (hydroxypropylcellulose) (HPC)
[3] = dose: 200.0 mg/kg/injection, schedule: Q01DX009 (ip), vehicle: Klucel (hydroxypropylcellulose) (HPC)
[4] = dose: 200.0 mg/kg/injection, schedule: Q04DX002 (ip), vehicle: Klucel (hydroxypropylcellulose) (HPC)
[5] = dose: 400.0 mg/kg/injection, schedule: Q04DX002 (ip), vehicle: Klucel (hydroxypropylcellulose) (HPC)
[6] = dose: 25.0 mg/kg/injection, schedule: Q01DX001 (ip), vehicle: Klucel (hydroxypropylcellulose) (HPC)
[7] = dose: 50.0 mg/kg/injection, schedule: Q01DX001 (ip), vehicle: Klucel (hydroxypropylcellulose) (HPC)
[8] = dose: 100.0 mg/kg/injection, schedule: Q01DX001 (ip), vehicle: saline
[9] = dose: 200.0 mg/kg/injection, schedule: Q01DX001 (ip), vehicle: saline
[10] = dose: 50.0 mg/kg/injection, schedule: Q01DX009 (ip), vehicle: saline with Tween-80
[11] = dose: 400.0 mg/kg/injection, schedule: Q01DX009 (ip), vehicle: Klucel (hydroxypropylcellulose) (HPC)
[12] = dose: 100.0 mg/kg/injection, schedule: Q04DX003 (ip), vehicle: Klucel (hydroxypropylcellulose) (HPC)
[13] = dose: 50.0 mg/kg/injection, schedule: Q01DX009 (ip), vehicle: saline
[14] = dose: 100.0 mg/kg/injection, schedule: Q04DX003 (ip), vehicle: saline

Measured: T/C

COC(=O)C1(C)CCC2(C)CCC3(C)C4=CC=C5C(=CC(=O)C(O)=C5C)C4(C)CCC3(C)C2C1 (centres undefined)
inactive: dose: 37.5 mg/kg/injection, schedule: Q01DX001 (sc), vehicle: steriod suspending solution 104 % of control | dose: 75.0 mg/kg/injection, schedule: Q01DX001 (sc), vehicle: steriod suspending solution 98 % of control | dose: 150.0 mg/kg/injection, schedule: Q01DX001 (sc), vehicle: steriod suspending solution 98 % of control | dose: 300.0 mg/kg/injection, schedule: Q01DX001 (sc), vehicle: steriod suspending solution 95 % of control

Cc1cccc(NC(=O)Nc2cccc(Cl)c2Cl)n1
inactive: [1] 92 % of control | [2] 89 % of control | [3] 92 % of control | [4] 92 % of control | [5] 103 % of control

CC1=CC(=O)N(C2=CC(=O)C=CC2=O)/C1=C/C#N
inactive: dose: 12.5 mg/kg/injection, schedule: Q01DX001 (ip), vehicle: Klucel (hydroxypropylcellulose) (HPC) 97 % of control | [6] 88 % of control | [7] 93 % of control and 89 % of control

CSc1n[nH]c(=O)nc1SC
inactive: [8] 104 % of control | [9] 96 % of control

COc1cc([N+](=O)[O-])ccc1NC(=O)C(Br)C(Br)c1ccccc1 (centres undefined)
inactive: dose: 100.0 mg/kg/injection, schedule: Q01DX009 (ip), vehicle: other 110 % of control | dose: 200.0 mg/kg/injection, schedule: Q01DX009 (ip), vehicle: other 96 % of control | dose: 400.0 mg/kg/injection, schedule: Q01DX009 (ip), vehicle: other 88 % of control

Cc1ccc(SC(=S)Sc2ccc(C)cc2)cc1
inactive: [10] 91 % of control | dose: 100.0 mg/kg/injection, schedule: Q01DX009 (ip), vehicle: saline with Tween-80 91 % of control | dose: 200.0 mg/kg/injection, schedule: Q01DX009 (ip), vehicle: saline with Tween-80 87 % of control

CCCCCC(CN(C)C)C(=O)/C=C/c1ccc(Cl)cc1 (centres undefined)
inactive: dose: 12.5 mg/kg/injection, schedule: Q01DX009 (sc), vehicle: other 100 % of control | dose: 25.0 mg/kg/injection, schedule: Q01DX009 (sc), vehicle: other 100 % of control | dose: 50.0 mg/kg/injection, schedule: Q01DX009 (sc), vehicle: other 93 % of control | dose: 50.0 mg/kg/injection, schedule: Q04DX003 (sc), vehicle: steriod suspending solution 95 % of control | dose: 75.0 mg/kg/injection, schedule: Q01DX009 (sc), vehicle: other 98 % of control | dose: 100.0 mg/kg/injection, schedule: Q01DX001 (sc), vehicle: steriod suspending solution 91 % of control | dose: 115.0 mg/kg/injection, schedule: Q01DX009 (sc), vehicle: other 100 % of control | dose: 200.0 mg/kg/injection, schedule: Q01DX001 (sc), vehicle: steriod suspending solution 116 % of control

CCCCCCCCCC(=O)N/N=C/c1c[nH]c2ccccc12
inactive: [1] 95 % of control | [3] 114 % of control | [11] 100 % of control

c1ccc2nc(OCCN3CC3)ccc2c1
inactive: dose: 100.0 mg/kg/injection, schedule: Q01DX001 (ip), vehicle: carboxymethylcellulose (CMC) 108 % of control

O=C1OCCN1/N=C/c1ccc(Cl)cc1
inactive: dose: 25.0 mg/kg/injection, schedule: Q01DX009 (ip), vehicle: saline with Tween-80 102 % of control | dose: 37.5 mg/kg/injection, schedule: Q01DX009 (ip), vehicle: saline with Tween-80 98 % of control | [10] 102 % of control | dose: 75.0 mg/kg/injection, schedule: Q01DX009 (ip), vehicle: saline with Tween-80 93 % of control | dose: 100.0 mg/kg/injection, schedule: Q04DX002 (ip), vehicle: saline with Tween-80 96 % of control | dose: 200.0 mg/kg/injection, schedule: Q04DX002 (ip), vehicle: saline with Tween-80 107 % of control

Nc1ccc(OC(F)(F)C(F)Cl)cc1 (centres undefined)
inactive: [1] 97 % of control | [12] 97 % of control | [3] 99 % of control | dose: 200.0 mg/kg/injection, schedule: Q04DX003 (ip), vehicle: Klucel (hydroxypropylcellulose) (HPC) 100 % of control | [11] 116 % of control | dose: 400.0 mg/kg/injection, schedule: Q04DX003 (ip), vehicle: Klucel (hydroxypropylcellulose) (HPC) 101 % of control

Cc1ccc(S(=O)(=O)OC2C(O)C(CO)OC2n2c(Br)c(C(N)=O)c3c(N)ncnc32)cc1 (centres undefined)
inactive: dose: 25.0 mg/kg/injection, schedule: Q01DX009 (ip), vehicle: water 100 % of control | dose: 50.0 mg/kg/injection, schedule: Q01DX009 (ip), vehicle: water 97 % of control | dose: 100.0 mg/kg/injection, schedule: Q01DX009 (ip), vehicle: water 95 % of control | dose: 200.0 mg/kg/injection, schedule: Q01DX009 (ip), vehicle: water 93 % of control

CCNC1(c2ccc(Cl)cc2)CCCCC1=O (centres undefined)
inactive: [13] 105 % of control | dose: 100.0 mg/kg/injection, schedule: Q01DX009 (ip), vehicle: saline 102 % of control | [14] 104 % of control | dose: 200.0 mg/kg/injection, schedule: Q04DX003 (ip), vehicle: saline 106 % of control

Nc1cc(C(=O)O)ccc1Cl
inactive: [8] 105 % of control | [9] 95 % of control | dose: 400.0 mg/kg/injection, schedule: Q01DX001 (ip), vehicle: saline 95 % of control

CN(C)CCCN1c2ccccc2Sc2c(Cl)cc(Cl)cc21
inactive: dose: 6.25 mg/kg/injection, schedule: Q01DX009 (ip), vehicle: saline 97 % of control | dose: 12.5 mg/kg/injection, schedule: Q01DX009 (ip), vehicle: saline 103 % of control | dose: 25.0 mg/kg/injection, schedule: Q01DX009 (ip), vehicle: saline 101 % of control | dose: 25.0 mg/kg/injection, schedule: Q04DX003 (ip), vehicle: saline 94 % of control | [13] 104 % of control | dose: 50.0 mg/kg/injection, schedule: Q04DX003 (ip), vehicle: saline 113 % of control | [14] 118 % of control

O=C(Nc1cc(F)ccc1F)Oc1cccnc1
inactive: [6] 102 % of control | dose: 25.0 mg/kg/injection, schedule: Q04DX003 (ip), vehicle: Klucel (hydroxypropylcellulose) (HPC) 107 % of control | [7] 104 % of control | dose: 50.0 mg/kg/injection, schedule: Q04DX003 (ip), vehicle: Klucel (hydroxypropylcellulose) (HPC) 106 % of control | dose: 75.0 mg/kg/injection, schedule: Q01DX009 (ip), vehicle: Klucel (hydroxypropylcellulose) (HPC) 103 % of control and 108 % of control | dose: 100.0 mg/kg/injection, schedule: Q01DX001 (ip), vehicle: Klucel (hydroxypropylcellulose) (HPC) 96 % of control | [1] 95 % of control and 109 % of control | [2] 95 % of control and 105 % of control | [12] 97 % of control | dose: 150.0 mg/kg/injection, schedule: Q01DX009 (ip), vehicle: Klucel (hydroxypropylcellulose) (HPC) 107 % of control | [3] 100 % of control | [4] 100 % of control and 108 % of control | [5] 94 % of control and 87 % of control

N/C(=N/N=C/c1ccccc1)N/N=C\c1ccccc1
inactive: dose: 15.0 mg/kg/injection, schedule: Q01DX Z (oral), vehicle: saline 95 % of control | dose: 30.0 mg/kg/injection, schedule: Q01DX Z (oral), vehicle: saline 95 % of control | dose: 60.0 mg/kg/injection, schedule: Q01DX Z (oral), vehicle: saline 91 % of control | dose: 120.0 mg/kg/injection, schedule: Q01DX Z (oral), vehicle: saline 95 % of control
